The assay relates to CEM cells HIV-1 protection, formazan growth assay. The assay is described as follows: NCI AIDS Antiviral Assay. The settings on record: for IC50: measured here: growth of uninfected CEM cells. The method, boiled down: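 Human CEM cells, uninfected and HIV-1-infected, exposed to five drug concentrations; growth measured by soluble formazan assay and scored as percent protection from infection, with protecting compounds retested.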

The term EC50 denotes the concentration at which the effect is half-maximal. One may read the IC50 as the concentration at which inhibition is half-maximal.

The structures appear in SMILES notation. Values joined by “and” are separate entries in the source; they are usually repeats but may differ in a detail not shown here. Equal values may be shown once. Active and inactive are the calls of the source.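 Rule for the calls: active = compounds giving half or more protection of infected cells from virus-caused growth loss, again on retest; inactive = the rest.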

For the compound `CN1c2ccc(Cl)cc2C2(C(=O)NN)C(C(=O)NN)N(C3CCCCC3)C(=O)C12N` (stereo unspecified), the EC50 was more than 87.1 µM and the IC50 was more than 87.1 µM.
For `Cc1cc(NS(=O)(=O)c2ccc(NC(=O)c3cccc4c(NNc5ccc(S(N)(=O)=O)cc5)c5ccccc5nc34)cc2)no1`, the EC50 was more than 200 µM and the IC50 turned out to be 37.2 µM.
On the same counts, the results for `CC/C(=C(\CC)c1ccc(OCCCN2CCCCC2C)cc1)c1ccc(OCCCN2CCCCC2C)cc1` (stereo unspecified) are more than 20 µM and 2.29 µM.
Regarding `COC(=O)[C@@H]1CCCN1C(=O)C1Cc2c([nH]c3ccccc23)[C@@H](C=C(C)C)N1C(=O)OC(C)(C)C(Cl)(Cl)Cl` (stereo partly specified), the outcome was inactive.
On the same count and under the same terms, the value for `CCN1c2ccccc2-c2c3c1cc(C)cc3c1ccccc1[n+]2CC` was “inactive”.
As for `CC1(C)Oc2ccc3c4c(c(=O)oc3c2[C@@H](OC(=O)C23CCC(C)(C(=O)O2)C3(C)C)[C@H]1OC(=O)C12CCC(C)(C(=O)O1)C2(C)C)CCCC4` (stereo partly specified), the concentration for a half-maximal effect (EC50) is 0.813 µM and the IC50 worked out at 12 µM.
Taken in the same sequence, the figures for `Cc1ccc(N=Nc2ccc(N(CCC#N)CCC#N)cc2C)c(Br)c1` were more than 3.55 µM and more than 3.55 µM.
Taken in the same sequence, the figures for `CCCCc1ccc(Nc2nc(Cl)c3ncn(C4CC(Oc5ccc(C)cc5)C(COc5ccc(C)cc5)O4)c3n2)cc1` (stereo unspecified) were more than 200 µM and more than 200 µM.
On to `CC1(C)CC(C2=NCCO2)CC(C)(C)N1`, for which the EC50 was more than 200 µM and the IC50 was more than 200 µM.
As for `Cn1c(=O)c2c(nc(NCC[N+](C)(C)Cc3ccc(Cl)cc3)n2C)n(C)c1=O`, the EC50 was more than 295 µM and the IC50 is more than 295 µM.
On to `CC(C)(C)OC(=O)NC(CS(=O)(=O)O)C(=O)O` (stereo unspecified), for which the EC50 is more than 200 µM and the IC50 was more than 200 µM.
As to `CCCCNc1nc(C(F)(F)F)nc2nc[nH]c12`, the EC50 is more than 200 µM and the IC50 is more than 200 µM.
As to `CCCC(O)c1ccc2[nH]c3c(C)cc([N+](=O)[O-])c(C)c3c2c1` (stereo unspecified), the EC50 is more than 4.68 µM and the IC50 was more than 4.68 µM.
Take `CCOC(=O)C(C)c1nc2ccc(C(F)(F)F)cc2[nH]c1=O` (stereo unspecified): the EC50 was more than 200 µM and the IC50 is 110 µM.
Taken in the same sequence, the figures for `O=c1[nH]cnc2c1ccn2C1OC(CO)C(O)C1O` (stereo unspecified) were more than 20 µM and 2.04 µM.
Take `Cc1cn(C2CC(N=[N+]=[N-])C(COC(=O)C3CCC(=O)N3)O2)c(=O)[nH]c1=O` (stereo unspecified): the outcome was active and the IC50 was 49 µM.
Turning to `COC(=O)C1=C(O)C(C(=O)OC)[C@@]2(O)[C@@H](C(=O)OC)[C@H](C)C[C@@H]1[C@@H]2C(=O)OC` (stereo partly specified), the EC50 was more than 200 µM and the IC50 was 39.8 µM.
In the case of `N#C/C(C(=O)Nc1ccc(Cl)cc1)=C(/N)N1CCOCC1`, the EC50 was more than 200 µM and the IC50 is more than 200 µM.
Turning to `COC(=O)C(C)[P+](c1ccccc1)(c1ccccc1)c1ccccc1` (stereo unspecified), the EC50 was more than 200 µM and the IC50 came to 5.75 µM.
On the same counts, the results for `Cc1cc(O)cc(C)c1Cl` are 162 µM and more than 200 µM.
Take `Cc1ccc(S/C=C/C(=O)Nc2ccccc2)cc1`: the EC50 is more than 37.2 µM; the IC50 is > 37.2 µM and 25.1 µM.
Turning to `COC(OC)c1cc2c(cc1C(=O)[C@@]13CCC[C@@H]1NC(=O)O3)OCO2`, the result was inactive.
As for `CC1CC(=O)Nc2ccc(N=NN(C)C)cc2N1C=O` (stereo unspecified), the EC50 is more than 200 µM and the IC50 is more than 200 µM.
`O=C(CCNC(=O)OCc1ccccc1)OCCCNC(=O)OCc1ccccc1`: the EC50 is more than 200 µM and the IC50 was more than 200 µM.
With `CC(C)N1C(C)[C@@H](c2ccccc2)O[P@@]1(=O)CC1=CCCCC1` (stereo partly specified), the result was inactive.
Regarding `COC(=O)[C@@H]1C=C[C@H](OC2OC(COC(C)=O)C(OC(C)=O)C(OC(C)=O)C2OC(C)=O)n2c(=O)n(-c3ccccc3)c(=O)n21` (stereo partly specified), the EC50 was more than 200 µM and the IC50 is 1.07 µM.
On the same counts, the results for `CCOc1csc([C@H]2CCC3[C@@H]4CC=C5C[C@@H](OC(=O)CCC(=O)O)CC[C@]5(C)C4CC[C@@]32C)n1` (stereo partly specified) are more than 50.1 µM and 33.9 µM.
As for `CC(Oc1ccccc1)C(=O)NNC(=O)OC(C)(C)C` (stereo unspecified), the EC50 was more than 200 µM and the IC50 was more than 200 µM.
On to `Nc1ncnc2c1ncn2[C@H]1C(CO)[C@@H](CO)C12SCCCS2` (stereo partly specified), for which the EC50 is more than 191 µM and the IC50 was more than 191 µM.
Consider `O=C(C=Nc1ccccc1C(=O)[O-])c1cccs1.O=C(C=Nc1ccccc1C(=O)[O-])c1cccs1.[Co+2]`, for which the outcome was inactive.
As to `Nc1c(Cl)cccc1-c1c[nH]cc1Cl`, the EC50 was more than 794 µM and the IC50 is more than 100 µM.
For the compound `Cc1ccc(NC(=O)/C(Cc2nc3ccc([N+](=O)[O-])cc3[nH]c2=O)=N\NC(=O)C[n+]2ccccc2)c(C)c1`, the EC50 is more than 234 µM and the IC50 worked out at 170 µM.
Taken in the same sequence, the figures for `COc1cc(-c2cc(-c3cc([N+](=O)[O-])c(/C=N/NC(=O)c4ccncc4)o3)ccc2OC)ccc1C` were more than 269 µM and 55 µM.
`CN(C)C(n1cc2c(c1)-c1ccc(Cl)cc1C(c1ccccc1F)=NC2)n1cc2c(c1)-c1ccc(Cl)cc1C(c1ccccc1F)=NC2`: the EC50 is more than 100 µM and the IC50 came out at 95.5 µM.
On the same counts, the results for `[N-]=[N+]=Nc1nnc(CCCCc2nnc(N=[N+]=[N-])o2)o1` are more than 468 µM and 138 µM.
Consider `CCOC(=O)CC(NC(=O)c1ccc(N=NN(C)C)cc1)C(=O)OCC` (stereo unspecified), for which the EC50 was more than 186 µM and the IC50 is more than 186 µM.
On to `COc1cc(NCCN(CC(C)C)C(C)C(C)C)c2ncccc2c1` (stereo unspecified), for which the EC50 is more than 200 µM and the IC50 was determined as 37.2 µM.
Turning to `COc1cc2c(cc1OC)C(Cl)C(c1ccc(Cl)c(Cl)c1)=C2Cl` (stereo unspecified), the outcome was inactive.
`[C-]#[N+][C@@]1(C)CCC2C(C)CC[C@@H](C(=C)C)[C@@]23C=C(C)CC[C@H]31` (stereo partly specified): the EC50 was more than 200 µM and the IC50 stood at 138 µM.
Taken in the same sequence, the figures for `COc1ccc([C@H]2Oc3cc(O)cc(O)c3C(=O)[C@@H]2[C@H]2C(=O)c3c(O)cc(OC)cc3O[C@@H]2c2ccc(OC)cc2)cc1` were more than 200 µM and 110 µM.
Regarding `CC(C)CN(C[C@@H](O)[C@H](Cc1ccccc1)NC(=O)[C@H](CC(N)=O)NC(=O)c1ccc2ccccc2n1)C(=O)NC(C)(C)C`, the outcome was active and the IC50 was 93.3 µM.
Consider `N#CC1=CNc2ccccc2N=C1N`, for which the EC50 is more than 200 µM and the IC50 is more than 200 µM.
`CCN(CC)CCC(=O)c1ccc(Cl)c(Cl)c1`: the EC50 was more than 5010 µM and the IC50 was more than 5010 µM.
With `C=C[C@@H](C)[C@@H](O[Si](C)(C)C(C)(C)C)c1c(O)c2c(c3c(CCC)cc(=O)oc13)OC(C)(C)C=C2`, the EC50 is more than 200 µM and the IC50 stood at 105 µM.
On the same counts, the results for `O=c1c(Cl)nsnc1Cl` are more than 490 µM and 28.2 µM.
Consider `CSc1nc2c(=S)[nH]c(=S)[nH]c2s1`, for which the EC50 was more than 105 µM and the IC50 is more than 105 µM.
`Nc1ccc(CCN2CCN(c3cccc(C(F)(F)F)c3)CC2)cc1I`: the result was inactive.
In the case of `Cc1ccc2c3c(nsc13)-c1ccccc1C2=O`, the EC50 was more than 53.7 µM and the IC50 is more than 53.7 µM.
As for `Cc1cc(C)c2c(c1C)CN1CN2Cc2c(C)c(C)cc(C)c21`, the outcome was inactive.
On the same count and under the same terms, the value for `O=C1CCCc2[nH]c(=O)ccc21` was “inactive”.

For the origin of these results see PubChem BioAssay AID179 (DTP/NCI, 2004).
